Data published in US20120277440A1, “IMINO DERIVATIVES, PROCESS FOR PREPARATION THEREOF, AND IN[…]” (MEIJI SEIKA PHARMA CO., LTD., priority 2010, published 2012).

| melting point | Compound |
| --- | --- |
| 125 to 126 °C | CCS(=O)(=O)N=C1SCCN1Cc1ccc(Cl)nc1 |
| 76 to 78 °C | CC(=O)N=C1SCCN1Cc1ccc(Cl)nc1 |
